Assay results taken from patent US20150133547A1, “METHOD AND COMPOSITION FOR TREATING GLAUCOMA” (priority 2013, published 2015).

How the values were obtained:
[1] = cited from earlier work
[2] = system: guinea pigs; settings: cited from earlier work
[3] = system: Humans; settings: handling of pure or concentrated lambda-cyhalothrin; cited from earlier work
[4] = system: rabbits; settings: cited from earlier work
[5] = system: canine subjects; assay: Intraocular pressure (IOP) in canine subjects after topical LC drops, iCARE rebound tonometer; format: in vivo
Method: Preparations: The desired composition was DMSO 4.0%, PG 3.0% and LC 10 mg/ml (1% (by weight)), based upon the total composition.
A vehicle was prepared for use as a subsequent dilution (serial dilutions of the initial LC strength), by mixing 4.65 ml of BSS, 0.2 ml of DMSO, and 0.15 ml of PG, to yield a diluent vehicle comprising 4.0% DMSO and 3.0% PG, based upon the total composition. A total of 5 ml was prepared.
Methodology: Inventive compositions were prepared by simple mixing.
IOP was determined using an iCARE® rebound tonometer. Other commercially available IOP measuring devices (tonometers) may also be used.
Progressive dilutions of the composition set forth in Table 1 are shown in Table 2, below, starting with the original 2.5 ml volume preparation of Table 1. These subsequent dilutions were used in the canine experiments set forth below.
The experiments were conducted on canine subjects. Canine subjects have IOP's that are the same (˜10-20 mm/Hg) as that of a human subject. Canines and humans share a common susceptibility gene, SRBD1, for glaucoma risk. Consequently, canines are excellent surrogates to assess the results of the use of the inventive compositions on humans. The results of the experiments are set forth in Table 3, below, reflecting the concentration range of LC used as 0.002% to 0.100% (by weight).
Additional efficacy and safety experiments were conducted using an LC concentration of 0.600% (by weight) in the same animal model. This additional data confirms in two animals the safety and efficacy of topical LC in reducing intraocular pressure.
A series of experiments was run in the same canine model, using LC concentrations, prepared as above, and ranging from 0.200% to 0.700% (by weight).

[6] = cited from earlier work; remark: listed apart in the source
[7] = system: canine subjects; assay: Adverse events in canine subjects after topical LC (daily ophthalmic examinations, toxicology studies of blood)
[8] = cited from earlier work; remark: listed apart in the source
[9] = system: rats; settings: cited from earlier work
[10] = Example 2, canine, topical LC 0.600%, Day 1, drop 9:30, IOP at 9:55
[11] = Example 2, canine, topical LC 0.600%, Day 1, drop 12:00, IOP at 12:30
[12] = Example 2, canine, topical LC 0.600%, Day 3, drop 9:45, IOP at 10:15
[13] = Example 2, canine, topical LC 0.600%, Day 3, drop 12:10, IOP at 12:40
[14] = Example 3, canine, topical LC 0.200%, Day 2, drop 7:40, IOP at 8:45
[15] = Example 3, canine, topical LC 0.300%, Day 3, drop 7:25, IOP at 7:25
[16] = Example 3, canine, topical LC 0.300%, Day 3, drop 12:25, IOP at 13:50
[17] = Example 3, canine, topical LC 0.300%, Day 3, drop 17:40, IOP at 17:30
[18] = Example 3, canine, topical LC 0.400%, Day 4, drop 7:25, IOP at 7:20
[19] = Example 3, canine, topical LC 0.400%, Day 4, drop 12:40, IOP at 12:35
[20] = Example 3, canine, topical LC 0.400%, Day 4, drop 17:25, IOP at 17:20
[21] = Example 3, canine, topical LC 0.500%, Day 5, drop 7:30, IOP at 7:20
[22] = Example 3, canine, topical LC 0.500%, Day 5, drop 12:40, IOP at 12:35
[23] = Example 3, canine, topical LC 0.600%, Day 8, drop 7:30, IOP at 7:00
[24] = Example 3, canine, topical LC 0.600%, Day 8, drop 12:05, IOP at 12:00
[25] = Example 3, canine, topical LC 0.600%, Day 8, drop 17:00, IOP at 16:30
[26] = Example 3, canine, topical LC 0.700%, Day 9, drop 7:05, IOP at 7:00
[27] = Example 3, canine, topical LC 0.700%, Day 9, drop 12:25, IOP at 12:20
[28] = Example 3, canine, topical LC 0.700%, Day 9, drop 17:05, IOP at 17:00
[29] = canine, topical LC 0.002%, Day 4, drop 8:30, IOP at 9:50
[30] = canine, topical LC 0.002%, Day 5, drop 9:00, IOP at 9:50
[31] = canine, topical LC 0.002%, Day 5, drop 14:30, IOP at 15:00
[32] = canine, topical LC 0.020%, Day 7, drop 9:00, IOP at 9:30
[33] = canine, topical LC 0.020%, Day 7, drop 15:00, IOP at 16:00
[34] = canine, topical LC 0.050%, Day 9, drop 9:00, IOP at 9:30
[35] = canine, topical LC 0.050%, Day 9, drop 15:00, IOP at 16:00
[36] = canine, topical LC 0.100%, Day 11, drop 9:00, IOP at 9:42
[37] = canine, topical LC 0.100%, Day 11, drop 15:00, IOP at 15:22

For `CC1(C)C(/C=C(\Cl)C(F)(F)F)C1C(=O)OC(C#N)c1cccc(Oc2ccccc2)c1` [LC, (R)-cyano(3-phenoxyphenyl) methyl (1S,3S)-rel-3-[(1Z)-2-chloro-3,3,3-trifluoro-1-propenyl]-2,2-dimethyl cyclopropane carboxylate], the “EPA toxicity class when inhaled” value [1] is listed as “moderately toxic”, the “skin sensitivity in guinea pigs” value [2] is listed as “no skin sensitivity” and the “onset of symptoms after exposure” value [3] is listed as no more than 30 min. The “symptoms reported on exposure” value [3] was “facial tingling and burning”, the “toxicity in skin effects for rabbits” value [4] was “low toxicity” and the “reduction in intraocular pressure after topical administration” value ([5]; Example 1, canine, 0.002% to 0.100% (by weight), dose related) was “significant reduction”. For the same molecule, the “IOP OD” value [5, 10] was 8, the “IOP OS” value [5, 10] was 7 and the “IOP OD” value [5, 11] was 8. For the same molecule, the “IOP OS” value [5, 11] was 8, the “IOP OD” value [5, 12] was 6 and the “IOP OS” value [5, 12] was 7. For the same molecule, the “IOP OD” value [5, 13] was 7, the “IOP OS” value [5, 13] was 7 and the “IOP OD” value [5, 14] was 8. For the same molecule, the “IOP OS” value [5, 14] was 7, the “IOP OD” value [5, 15] was 13 and the “IOP OS” value [5, 15] was 10. The “IOP OD” value [5, 16] was 6, the “IOP OS” value [5, 16] was 7 and the “IOP OD” value [5, 17] was 9. For the same molecule, the “IOP OS” value [5, 17] was 8, the “IOP OD” value [5, 18] was 12 and the “IOP OS” value [5, 18] was 11. For the same molecule, the “IOP OD” value [5, 19] was 7, the “IOP OS” value [5, 19] was 7 and the “IOP OD” value [5, 20] was 7. For the same molecule, the “IOP OS” value [5, 20] was 7, the “IOP OD” value [5, 21] was 9 and the “IOP OS” value [5, 21] was 10. For the same molecule, the “IOP OD” value [5, 22] was 7, the “IOP OS” value [5, 22] was 7 and the “IOP OD” value [5, 23] was 7. The “IOP OS” value [5, 23] was 7, the “IOP OD” value [5, 24] was 6 and the “IOP OS” value [5, 24] was 6. For the same molecule, the “IOP OD” value [5, 25] was 7, the “IOP OS” value [5, 25] was 8 and the “IOP OD” value [5, 26] was 8. For the same molecule, the “IOP OS” value [5, 26] was 7, the “IOP OD” value [5, 27] was 7 and the “IOP OS” value [5, 27] was 7. For the same molecule, the “IOP OD” value [5, 28] was 6, the “IOP OS” value [5, 28] was 5 and the “persistence of the reduction of intra-ocular pressure” value ([5]; after exposure) was “hours to days”. For the same molecule, the “reduction of IOP” value ([5]; canine, dosages ranging from 0.002% to 0.700% LC (by weight), overall) was 35-40%, the “IOP OD (intraocular pressure right eye)” value [5, 29] was 8 and the “IOP OS (intraocular pressure left eye)” value [5, 29] was 8. For the same molecule, the “IOP OD (intraocular pressure right eye)” value [5, 30] was 8, the “IOP OS (intraocular pressure left eye)” value [5, 30] was 8 and the “IOP OD (intraocular pressure right eye)” value [5, 31] was 8. The “IOP OS (intraocular pressure left eye)” value [5, 31] was 9, the “IOP OD (intraocular pressure right eye)” value [5, 32] was 10 and the “IOP OS (intraocular pressure left eye)” value [5, 32] was 9. The “IOP OD (intraocular pressure right eye)” value [5, 33] was 10, the “IOP OS (intraocular pressure left eye)” value [5, 33] was 7 and the “IOP OD (intraocular pressure right eye)” value [5, 34] was 11. The “IOP OS (intraocular pressure left eye)” value [5, 34] was 11, the “IOP OD (intraocular pressure right eye)” value [5, 35] was 7 and the “IOP OS (intraocular pressure left eye)” value [5, 35] was 8. For the same molecule, the “IOP OD (intraocular pressure right eye)” value [5, 36] was 9, the “IOP OS (intraocular pressure left eye)” value [5, 36] was 10 and the “IOP OD (intraocular pressure right eye)” value [5, 37] was 11. The “IOP OS (intraocular pressure left eye)” value [5, 37] was 5, the water solubility [6] was “low” and the “local or systemic adverse events” value ([7]; Example 1, daily complete ophthalmic examinations and toxicology studies of blood) was “no local or systemic adverse events”. The AE ([7]; Example 2, topical LC 0.600%, Day 1, drop 9:30) was 0, the AE ([7]; Example 2, topical LC 0.600%, Day 1, drop 12:00) was 0 and the AE ([7]; Example 2, topical LC 0.600%, Day 3, drop 9:45) was 0. The AE ([7]; Example 2, topical LC 0.600%, Day 3, drop 12:10) was 0, the AE ([7]; Example 3, topical LC 0.200%, Day 2, drop 7:40) was 0 and the AE ([7]; Example 3, topical LC 0.200%, Day 2, drop 12:22) was 0. The AE ([7]; Example 3, topical LC 0.200%, Day 2, drop 17:05) was 0, the AE ([7]; Example 3, topical LC 0.300%, Day 3, drop 7:25) was 0 and the AE ([7]; Example 3, topical LC 0.300%, Day 3, drop 12:25) was 0. It also gave an AE ([7]; Example 3, topical LC 0.300%, Day 3, drop 17:40) of 0, an AE ([7]; Example 3, topical LC 0.400%, Day 4, drop 7:25) of 0 and an AE ([7]; Example 3, topical LC 0.400%, Day 4, drop 12:40) of 0. For the same molecule, the AE ([7]; Example 3, topical LC 0.400%, Day 4, drop 17:25) was 0, the AE ([7]; Example 3, topical LC 0.500%, Day 5, drop 7:30) was 0 and the AE ([7]; Example 3, topical LC 0.500%, Day 5, drop 12:40) was 0. It also gave an AE ([7]; Example 3, topical LC 0.600%, Day 8, drop 7:30) of 0, an AE ([7]; Example 3, topical LC 0.600%, Day 8, drop 12:05) of 0 and an AE ([7]; Example 3, topical LC 0.600%, Day 8, drop 17:00) of 0. It also gave an AE ([7]; Example 3, topical LC 0.700%, Day 9, drop 7:05) of 0, an AE ([7]; Example 3, topical LC 0.700%, Day 9, drop 12:25) of 1 and an AE ([7]; Example 3, topical LC 0.700%, Day 9, drop 17:05) of 1. For the same molecule, the “adverse events at doses other than 0.700%” value ([7]; topical 0.002% to 0.600% LC) was “No adverse events”, the “adverse events at the 0.700% dose” value ([7]; topical 0.700% LC) was “minimal, reversible inferior conjunctival hyperemia” and the “AE (adverse event)” value ([7]; topical LC 0.002%, Day 4, drop 8:30) was 0. The “AE (adverse event)” value ([7]; topical LC 0.002%, Day 5, drop 9:00) was 0, the “AE (adverse event)” value ([7]; topical LC 0.002%, Day 5, drop 14:30) was 0 and the “AE (adverse event)” value ([7]; topical LC 0.020%, Day 7, drop 9:00) was 0. The “AE (adverse event)” value ([7]; topical LC 0.020%, Day 7, drop 15:00) was 0, the “AE (adverse event)” value ([7]; topical LC 0.050%, Day 9, drop 9:00) was 0 and the “AE (adverse event)” value ([7]; topical LC 0.050%, Day 9, drop 15:00) was 0. The “AE (adverse event)” value ([7]; topical LC 0.100%, Day 11, drop 9:00) was 0, the “AE (adverse event)” value ([7]; topical LC 0.100%, Day 11, drop 15:00) was 0 and the “EPA toxicity class, eye effects” value [8] was “moderately toxic”. For the same molecule, the “EPA toxicity class, skin effects for rats” value [9] was “moderately toxic”.
